These results are taken from patent publication US20080038809A1, “ISOLATED LECTIN POLYPEPTIDES CONSISTING OF TRUNCATED […] UDP-GalNAc:POLYPEPTIDE N- ACETYLGALACTOSAMINYLTRANSFERASES” (GLYCOZYM APS, priority 2002, published 2008).

Molecules are shown by their SMILES. pIC50: −log10 of the molar value. Like-named read-outs stand apart in the source and are kept apart here.

Assay [1] has as its system T, Tn and sialyl-Tn in HT-29 MTX cells. In words: O-linked mucin carbohydrate structures T, Tn and sialyl-Tn in HT-29 MTX cells by immuno-histochemistry. The assay is classed as cell-based, human. As to conditions: 5 mM, compared to controls. An excerpt:
In order to evaluate GalNAcβ-benzyl as an inhibitor of mucin glycosylation and secretion we used the cultured colon carcinoma cells of mucin secreting phenotypes: HT-29 metotrexate (MTX) cells selected from the HT-29 cell line by culture in the presence of MTX (kind gift from G. Huet, France). The HT-29 MTX cells were selected to yield a goblet cell like phenotype with constitutive production of MUC5AC. In order to ensure proper goblet cell differentiation the HT29MTX cell line were continuously grown up to 21 days in the presence of 5 mM GalNAcα-benzyl, 5 mM GalNAcβ-benzyl, 5 mM GlcNAcα-benzyl and without inhibitor using culture conditions as described in Hennebicq-Reig et al. (Permanent exposure of mucin-secreting HT-29 cells to benzyl-N-acetyl-alpha-D-galactosaminide induces abnormal O-glycosylation of mucins and inhibits constitutive and stimulated MUC5AC secretion. Biochem J. 1998; 334:283-95). […] Furthermore the viscosity of the media from cells with and without inhibitor was evaluated using viscosity micro-measurement.

Assay [2] has as its system core 1 α2-3sialyltransferase ST3Gal-I. As to conditions: cited from earlier work.
The target of another assay is T1, GalNAc-T2 lectin domain (Homo sapiens, UniProt Q10471).
T1 construct: comprises amino acid residues 408-571 of GALNT2; made in house; host or cells: baculovirus (pAcGP67-A), virus made in Sf9, protein produced in High Five insect cells
T1 sequence (Q10471 408-571): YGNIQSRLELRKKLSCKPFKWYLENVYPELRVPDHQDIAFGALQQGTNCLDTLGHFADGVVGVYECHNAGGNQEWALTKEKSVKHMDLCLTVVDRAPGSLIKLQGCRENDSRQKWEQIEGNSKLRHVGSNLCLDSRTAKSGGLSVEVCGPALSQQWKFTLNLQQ
In words: Inhibition of GalNAc-T2 lectin domain (T2ld) binding to GalNAc-MUC1 glycopeptide, ELISA. As for the experimental part:
(§1) Direct binding ELISA assay was developed as follows: Polystyrene microtiter plates (Maxisorb, Nunc, Denmark) were coated with peptides or enzymatically glycosylated glycopeptides in PBS overnight at 4° C. Plates were washed and blocked with 0.1% Tween20 and 0.2% BSA in PBS for 1 h at room temperature, followed by incubation with biotinylated proteins in PBS with 0.05% Tween20 for 2 h at room temperature. After four washes with PBS, plates were incubated with 1:2,000 dilution streptavidin-HRP (Sigma) in PBS for 30 min at room temperature and washed four times with PBS. Development was performed with 0.5 mg/ml o-phenylenediamine and 0.02% H2O2 at room temperature for 15 min, and reaction stopped by adding 100 μl/well of 0.5 N H2SO4. Competitive inhibition assays were done at end-point titers of GalNAc-transferase proteins with one hour preincubations with inhibitor.
(§2) In binding studies using lectins without biotinylation antibodies to the HIS-tag and the T7-tag, or in some experiments antibodies raised to GalNAc-T2 and -T4 enzymes were used to detect binding.
(§3) Inhibition experiments were used to further define the binding specificity of GalNAc-T2 and -T4 secreted soluble enzymes as well as lectin domains compared to Helix Pomatia lectin (Table IV).
In general terms: ELISA stands for enzyme-linked immunosorbent assay.

The target of assay [3] is T2, secreted soluble GalNAc-T2 (Homo sapiens, UniProt Q10471).
T2 construct: 6xHis (N); thrombin cleavage site (N); T7 antibody site (N); made in house; host or cells: baculovirus (pAcGP67A), High Five insect cells
T2 sequence (Q10471 52-571 limits assumed): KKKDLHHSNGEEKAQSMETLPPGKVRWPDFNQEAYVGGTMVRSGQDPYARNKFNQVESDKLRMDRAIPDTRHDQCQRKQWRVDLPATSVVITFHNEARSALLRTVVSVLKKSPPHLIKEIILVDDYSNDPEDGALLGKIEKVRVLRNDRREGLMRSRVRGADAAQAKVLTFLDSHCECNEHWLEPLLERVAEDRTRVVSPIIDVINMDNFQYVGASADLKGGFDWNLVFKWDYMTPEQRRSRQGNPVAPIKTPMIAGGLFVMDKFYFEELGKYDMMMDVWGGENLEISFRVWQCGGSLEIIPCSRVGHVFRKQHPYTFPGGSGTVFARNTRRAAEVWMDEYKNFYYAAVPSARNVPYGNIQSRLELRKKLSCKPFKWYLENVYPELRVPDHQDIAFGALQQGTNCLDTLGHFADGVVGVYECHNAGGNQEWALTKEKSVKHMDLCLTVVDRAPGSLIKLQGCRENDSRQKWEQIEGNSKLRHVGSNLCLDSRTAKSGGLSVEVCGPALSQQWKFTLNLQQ
In words: Inhibition of secreted soluble GalNAc-T2 (sT2) binding to GalNAc-MUC1 glycopeptide, ELISA. On the procedure: as §1, §3

Another assay has as its target T3, GalNAc-T4 lectin domain (Homo sapiens, UniProt Q8N4A0).
T3 construct: comprises amino acid residues 405-578 of GALNT4; made in house; host or cells: baculovirus (pAcGP67-A), virus made in Sf9, protein produced in High Five insect cells
Put plainly: Inhibition of GalNAc-T4 lectin domain (T4ld) binding to GalNAc-MUC1 glycopeptide, ELISA. On the procedure: as §1, §2, §3

The target in assay [4] is T4, secreted soluble GalNAc-T4 (Homo sapiens, UniProt Q8N4A0).
T4 construct: 6xHis (N); thrombin cleavage site (N); T7 antibody site (N); made in house; host or cells: baculovirus (pAcGP67A), High Five insect cells
T4 sequence (Q8N4A0 36-578 limits assumed): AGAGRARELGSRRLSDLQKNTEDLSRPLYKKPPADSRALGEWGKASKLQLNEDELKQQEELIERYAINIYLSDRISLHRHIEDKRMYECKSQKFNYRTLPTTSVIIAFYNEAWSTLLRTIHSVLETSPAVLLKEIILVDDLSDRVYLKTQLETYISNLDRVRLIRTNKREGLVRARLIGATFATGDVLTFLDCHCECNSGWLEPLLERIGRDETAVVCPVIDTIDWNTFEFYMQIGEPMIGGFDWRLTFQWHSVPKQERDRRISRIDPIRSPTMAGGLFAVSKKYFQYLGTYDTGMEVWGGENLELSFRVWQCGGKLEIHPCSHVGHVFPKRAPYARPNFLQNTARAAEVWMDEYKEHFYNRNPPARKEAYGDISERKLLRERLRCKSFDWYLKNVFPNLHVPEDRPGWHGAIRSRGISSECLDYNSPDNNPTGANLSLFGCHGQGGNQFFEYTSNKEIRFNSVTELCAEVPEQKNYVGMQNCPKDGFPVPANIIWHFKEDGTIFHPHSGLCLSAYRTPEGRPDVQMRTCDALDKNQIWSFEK
Put plainly: Inhibition of secreted soluble GalNAc-T4 (sT4) binding to GalNAc-MUC1 glycopeptide, ELISA. As for the experimental part:
as §1, §3

Assay [5] concerns the target Helix Pomatia lectin (HPA) (Helix pomatia, UniProt Q2F1K8). In words: Inhibition of Helix Pomatia lectin (HPA) binding, ELISA. As for the experimental part:
Glycopeptides were purified by C-18 reverse phase HPLC. Peptides were custom synthesized by Neosystems (Strasbourg). Biotinylated Helix Pomatia lectin (HPA) was from KemEnTec (Denmark). Anti-MUC1 HMFG2 monoclonal antibody was a generous gift from Joyce Taylor-Papadimitriou.
as §1, §3

The subject of assay [6] is GalNAc-T2 and -T4 secreted soluble enzymes as well as lectin domains. In words: Inhibition of GalNAc-transferase lectin binding to GalNAc-glycopeptides, statements on GalNAc-T2 and -T4 together. The conditions noted are these: enzymes and isolated lectins. The arrangement: species or system human. As for the experimental part:
as §1
Lectins and antibodies to carbohydrates usually recognize the anomeric configuration of the sugar structures they bind.
as §3

Assay [7] addresses human GalNAc-T4 (UDP-GalNAc:polypeptide N-acetylgalactosaminyltransferase T4) isolated truncated lectin domain (T4ld), HIS-tagged, amino acid residues 405-578 of GALNT4 (Homo sapiens, UniProt Q8N4A0). Put plainly: biochemical. The assay is classed as binding. As to conditions: binding to GalNAc-MUC1 glycopeptide.
From the text: In order to minimize the size and functional complexity of GalNAc-transferase lectins to be used as probes for binding studies, we used multiple sequence alignment analysis to predict and design suitable expression constructs for isolated lectin domains (FIG. 2). In the present invention a direct binding assay was developed using isolated lectin domains of GalNAc-T4 and -T2 with minimal size (FIG. 5). […] The lectin Helix Pomatia (HP) was used as a control plant lectin with known binding specificity for […].
as §1, §2, §3
The ligand target used in this Example is a GalNAc-MUC1 glycopeptide produced enzymatically from synthetic peptides.

T3 sequence (Q8N4A0 405-578): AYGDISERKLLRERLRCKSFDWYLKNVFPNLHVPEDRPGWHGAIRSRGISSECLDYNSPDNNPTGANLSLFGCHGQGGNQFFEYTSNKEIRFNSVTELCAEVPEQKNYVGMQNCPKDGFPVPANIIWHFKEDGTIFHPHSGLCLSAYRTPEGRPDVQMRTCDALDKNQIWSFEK
Chain of human GalNAc-T4 (UDP-GalNAc:polypeptide N-acetylgalactosaminyltransferase T4) isolated truncated lectin domain (T4ld), HIS-tagged, amino acid residues 405-578 of GALNT4 (Q8N4A0 405-578): as above
Chain of Helix Pomatia lectin (HPA) (Q2F1K8 entry or part of it): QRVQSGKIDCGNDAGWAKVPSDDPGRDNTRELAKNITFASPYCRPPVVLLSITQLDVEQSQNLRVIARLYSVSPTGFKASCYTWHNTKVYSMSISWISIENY

`CC(=O)N[C@H]1[C@H](OCc2ccccc2)O[C@H](CO)[C@@H](O)[C@@H]1O` [BzlβGlcNAc]: the “O-linked mucin carbohydrate structures T, Tn and sialyl-Tn” value in assay [1] was “upregulated”.

In the case of `CC(=O)N[C@H]1[C@@H](OCc2ccccc2)O[C@H](CO)[C@H](O)[C@@H]1O[C@@H]1O[C@H](CO)[C@H](O)[C@H](O)[C@H]1O` [Galβ1-3GalNAcα-benzyl], the “substrate for ST3Gal-I” value in [2] was “efficient substrate”.

`CC(=O)N[C@H]1[C@@H](OP(=O)(O)OP(=O)(O)OC[C@H]2O[C@@H](n3ccc(=O)[nH]c3=O)[C@H](O)[C@@H]2O)O[C@H](CO)[C@H](O)[C@@H]1O` [UDPαGalNAc, UDP-N-acetylgalactosamine]: the pIC50 at GalNAc-T2 lectin domain was under 1.00; in assay [3], 1.19; on GalNAc-T4 lectin domain, 1.30; in assay [4], 1.52. Moreover, the “inhibition of Helix Pomatia binding, in words” value in assay [5] is “strong inhibitor”. Further, the “inhibition of GalNAc-T2 and -T4 lectin mediated binding, in words” value in assay [6] is on record as “not a significant inhibitor”.

As for `CC(=O)N[C@H]1[C@H](Oc2ccc([N+](=O)[O-])cc2)O[C@H](CO)[C@H](O)[C@@H]1O` [pNPβGalNAc], the pIC50 is under 2.00 at GalNAc-T2 lectin domain (read-out: T2ld: Concentration required for 50% inhibition (IC50)), under 2.00 in assay [3] (read-out: sT2: Concentration required for 50% inhibition (IC50)) and 2.10 in [7].
